ChEMBL document CHEMBL1155351, “Synthesis and evaluation of novel tricyclic benzo[4.5]cyclohepta[1.2]pyridine derivatives as NMDA/NR2B antagonists” (Bioorg Med Chem Lett, 2009)
pIC50, pKi: −log10 of the molar value.

Columns and labels:
[1] = biological target: Voltage-gated inwardly rectifying potassium channel KCNH2 (Homo sapiens, UniProt Q12809); test: Displacement of [35S]MK499 from human ERG expressed in HEK293 cells; assay type: cell-based; conditions: for pIC50: read-out: IP
[2] = Displacement of [3H](E)-N1-(2-methoxybenzyl)-cinnamamidine from human recombinant N-methyl-D-aspartate receptor subunit NR1a/N-methyl D-aspartate receptor subtype 2B expressed in mouse Ltk cells by radioligand binding assay
Homo sapiens = organism: Homo sapiens; test: Selectivity ratio of Ki for human NR2B to IP for human ERG
[3] = Binding affinity to alpha1 adrenergic receptor
[4] = biological target: Glutamate receptor ionotropic, NMDA 2B (Homo sapiens, UniProt Q13224); test: Antagonistic activity against NR2B receptor expressed in mouse Ltk cells assessed as inhibition of calcium influx by FLIPR assay; assay type: functional, cell-based
Chain of Glutamate receptor ionotropic, NMDA 2B (Q13224 whole entry): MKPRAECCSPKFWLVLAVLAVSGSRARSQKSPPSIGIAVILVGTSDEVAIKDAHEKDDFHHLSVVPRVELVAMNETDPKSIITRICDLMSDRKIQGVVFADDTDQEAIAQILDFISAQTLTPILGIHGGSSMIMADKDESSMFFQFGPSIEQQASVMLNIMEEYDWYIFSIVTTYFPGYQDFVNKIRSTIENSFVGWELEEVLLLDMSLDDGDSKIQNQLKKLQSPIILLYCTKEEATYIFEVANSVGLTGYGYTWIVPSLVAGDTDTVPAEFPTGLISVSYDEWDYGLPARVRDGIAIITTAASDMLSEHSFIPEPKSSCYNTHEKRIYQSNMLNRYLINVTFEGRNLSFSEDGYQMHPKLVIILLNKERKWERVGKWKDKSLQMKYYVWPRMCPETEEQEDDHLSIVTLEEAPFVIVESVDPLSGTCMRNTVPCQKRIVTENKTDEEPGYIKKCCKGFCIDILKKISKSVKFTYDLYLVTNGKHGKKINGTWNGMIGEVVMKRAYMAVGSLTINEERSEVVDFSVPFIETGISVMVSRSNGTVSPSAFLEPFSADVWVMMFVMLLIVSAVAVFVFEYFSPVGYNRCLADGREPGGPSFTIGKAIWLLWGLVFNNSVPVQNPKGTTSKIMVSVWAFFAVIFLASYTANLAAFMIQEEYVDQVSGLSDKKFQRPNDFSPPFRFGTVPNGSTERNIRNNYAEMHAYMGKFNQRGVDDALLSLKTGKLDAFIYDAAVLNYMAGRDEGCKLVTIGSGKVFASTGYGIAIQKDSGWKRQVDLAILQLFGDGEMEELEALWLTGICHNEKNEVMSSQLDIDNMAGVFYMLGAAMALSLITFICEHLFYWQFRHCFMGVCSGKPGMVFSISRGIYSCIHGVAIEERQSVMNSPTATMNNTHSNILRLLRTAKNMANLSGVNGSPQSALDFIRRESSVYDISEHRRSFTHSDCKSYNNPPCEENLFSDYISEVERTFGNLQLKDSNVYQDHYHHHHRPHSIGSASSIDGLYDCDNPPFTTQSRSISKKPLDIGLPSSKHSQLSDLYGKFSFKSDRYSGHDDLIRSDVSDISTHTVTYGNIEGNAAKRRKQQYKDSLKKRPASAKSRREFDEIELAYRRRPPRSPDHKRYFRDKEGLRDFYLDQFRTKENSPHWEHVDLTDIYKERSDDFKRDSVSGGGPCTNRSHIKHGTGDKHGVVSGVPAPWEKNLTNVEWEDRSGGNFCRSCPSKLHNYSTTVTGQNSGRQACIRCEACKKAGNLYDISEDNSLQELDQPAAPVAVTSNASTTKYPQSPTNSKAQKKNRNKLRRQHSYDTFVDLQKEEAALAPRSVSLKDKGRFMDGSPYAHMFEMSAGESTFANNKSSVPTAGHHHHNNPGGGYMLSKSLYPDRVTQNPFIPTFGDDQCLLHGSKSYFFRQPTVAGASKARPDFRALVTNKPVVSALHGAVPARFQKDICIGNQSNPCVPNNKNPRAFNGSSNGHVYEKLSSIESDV

Chain of Voltage-gated inwardly rectifying potassium channel KCNH2 (Q12809 whole entry): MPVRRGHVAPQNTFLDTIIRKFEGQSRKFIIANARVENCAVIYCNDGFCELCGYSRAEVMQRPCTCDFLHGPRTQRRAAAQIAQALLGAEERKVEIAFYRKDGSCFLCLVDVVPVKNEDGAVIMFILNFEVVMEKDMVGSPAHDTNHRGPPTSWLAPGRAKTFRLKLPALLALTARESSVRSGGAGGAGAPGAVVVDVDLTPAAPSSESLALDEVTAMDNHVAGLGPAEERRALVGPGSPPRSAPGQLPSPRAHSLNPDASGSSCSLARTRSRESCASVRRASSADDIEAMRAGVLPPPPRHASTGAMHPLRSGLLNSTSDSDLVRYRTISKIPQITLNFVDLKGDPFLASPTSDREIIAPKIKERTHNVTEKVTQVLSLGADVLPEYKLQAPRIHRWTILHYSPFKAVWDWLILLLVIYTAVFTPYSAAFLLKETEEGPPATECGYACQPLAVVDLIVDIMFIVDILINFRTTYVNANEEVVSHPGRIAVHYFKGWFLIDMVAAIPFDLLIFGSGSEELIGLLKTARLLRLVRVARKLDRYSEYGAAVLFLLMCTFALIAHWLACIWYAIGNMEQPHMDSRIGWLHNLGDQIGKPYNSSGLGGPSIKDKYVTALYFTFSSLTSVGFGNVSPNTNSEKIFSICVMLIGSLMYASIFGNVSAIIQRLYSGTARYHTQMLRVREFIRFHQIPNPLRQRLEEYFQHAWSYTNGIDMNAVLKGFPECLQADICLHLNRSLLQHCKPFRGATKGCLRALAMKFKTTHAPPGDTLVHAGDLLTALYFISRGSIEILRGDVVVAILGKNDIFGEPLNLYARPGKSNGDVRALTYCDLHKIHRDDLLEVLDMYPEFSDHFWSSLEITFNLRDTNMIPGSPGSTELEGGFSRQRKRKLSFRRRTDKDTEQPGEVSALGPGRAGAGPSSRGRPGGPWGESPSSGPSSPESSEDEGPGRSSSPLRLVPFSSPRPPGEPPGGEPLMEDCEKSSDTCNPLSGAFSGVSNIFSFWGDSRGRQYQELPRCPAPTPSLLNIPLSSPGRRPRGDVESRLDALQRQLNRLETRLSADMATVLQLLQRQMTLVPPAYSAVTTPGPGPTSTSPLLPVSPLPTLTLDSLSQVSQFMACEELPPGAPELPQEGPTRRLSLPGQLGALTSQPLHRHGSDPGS

Ratio (Homo sapiens)	pKi [3]	pIC50 [4]	SMILES	pIC50 [1]	pKi [2]	pKi [1]
–	–	–	Cc1ccc(-c2cnc3c(c2)C(O)c2cccc(C#N)c2C=C3)cc1 (centres undefined)	5.77	8.00	–
–	–	–	COc1ccccc1-c1cnc2c(c1)C(O)c1cccc(C#N)c1C=C2 (centres undefined)	5.26	7.89	–
–	–	–	CC(=O)OC1c2cc(-c3ccccc3)cnc2C=Cc2c(C#N)cccc21 (centres undefined)	6.19	8.00	–
–	–	–	N#Cc1cccc2c1CCc1ncc(-c3ccccc3)cc1C2	6.81	7.11	–
–	–	–	N#Cc1cccc2c1C=Cc1ncc(-c3ccccc3F)cc1C2O (centres undefined)	5.35	7.80	–
–	–	–	N#Cc1cccc2c1C(=O)Nc1ncc(-c3ccccc3)cc1C2	–	7.72	6.37
–	–	–	N#Cc1cccc2c1C=Cc1ncc(N3CCCCC3)cc1C2O (single isomer, unassigned; (+))	4.70	4.46	–
1000	–	–	N#Cc1cccc2c1C=Cc1ncc(N3CCCCC3)cc1C2O (single isomer, unassigned; (-)) [listing 1 of 2 here]	–	–	–
–	–	–	N#Cc1cccc2c1C=Cc1ncc(N3CCCCC3)cc1C2O (racemic)	5.00	7.37	–
–	–	–	COc1ccc(-c2cnc3c(c2)C(O)c2cccc(C#N)c2C=C3)cc1 (centres undefined)	5.79	8.10	–
–	5.30	8.05	N#Cc1cccc2c1C=Cc1ncc(-c3ccccc3)cc1C2O (single isomer, unassigned; (-))	6.23	9.00	–
–	–	–	CN1CCN(c2cnc3c(c2)C(O)c2cccc(C#N)c2C=C3)CC1 (centres undefined)	4.38	< 4.80	–
–	–	–	N#Cc1cccc2c1C=Cc1ncc(-c3ccccc3)cc1C2O (single isomer, unassigned; (+))	5.00	6.27	–
–	–	–	N#Cc1cccc2c1C=Cc1ncc(N3CCOCC3)cc1C2O (centres undefined)	4.70	6.71	–
–	–	–	Cc1ccccc1-c1cnc2c(c1)C(O)c1cccc(C#N)c1C=C2 (centres undefined)	5.87	8.22	–
–	< 4.68	7.57	N#Cc1cccc2c1C=Cc1ncc(N3CCCCC3)cc1C2O (single isomer, unassigned; (-)) [listing 2 of 2 here]	4.70	7.77	–
–	–	–	N#Cc1cccc2c1C=Cc1ncc(-c3cccc(F)c3)cc1C2O (centres undefined)	5.30	7.64	–
–	–	–	COc1cccc(-c2cnc3c(c2)C(O)c2cccc(C#N)c2C=C3)c1 (centres undefined)	5.81	8.05	–
–	–	–	CC1CCN(c2cnc3c(c2)C(O)c2cccc(C#N)c2C=C3)CC1 (centres undefined)	5.28	7.08	–
–	–	–	N#Cc1cccc2c1C=Cc1ncc(N3CCCC3)cc1C2O (centres undefined)	4.81	6.14	–
–	–	–	N#Cc1cccc2c1C=Cc1ncc(N3CCCCCC3)cc1C2O (centres undefined)	5.52	6.37	–
–	–	–	N#Cc1cccc2c1C=Cc1ncc(-c3ccccc3)cc1C2O (racemic)	5.29	8.70	–
–	–	–	Cc1cccc(-c2cnc3c(c2)C(O)c2cccc(C#N)c2C=C3)c1 (centres undefined)	5.96	8.40	–
–	–	–	N#Cc1cccc2c1C=Cc1ncc(-c3ccccc3)cc1C2	7.19	8.70	–
–	–	–	N#Cc1cccc2c1C=Cc1ncc(-c3ccc(F)cc3)cc1C2O (centres undefined)	6.29	8.52	–
–	–	–	N#Cc1cccc2c(=O)c3cc(-c4ccccc4)cnc3ccc12	6.05	6.00	–
–	–	–	COC1c2cc(-c3ccccc3)cnc2C=Cc2c(C#N)cccc21 (centres undefined)	6.18	5.32	–
–	–	–	N#Cc1cccc2c1CCc1ncc(-c3ccccc3)cc1C2O (centres undefined)	5.45	7.25	–
